These results are taken from ChEMBL document CHEMBL3997855, “Discovery of Fevipiprant (NVP-QAW039), a Potent and Selective DP2 Receptor Antagonist for Treatment of Asthma” (ACS Med Chem Lett, 2017).

Data set [1] concerns the target T1, Prostaglandin D2 receptor 2 (Homo sapiens, UniProt Q9Y5Y4).
T1 sequence (Q9Y5Y4 whole entry): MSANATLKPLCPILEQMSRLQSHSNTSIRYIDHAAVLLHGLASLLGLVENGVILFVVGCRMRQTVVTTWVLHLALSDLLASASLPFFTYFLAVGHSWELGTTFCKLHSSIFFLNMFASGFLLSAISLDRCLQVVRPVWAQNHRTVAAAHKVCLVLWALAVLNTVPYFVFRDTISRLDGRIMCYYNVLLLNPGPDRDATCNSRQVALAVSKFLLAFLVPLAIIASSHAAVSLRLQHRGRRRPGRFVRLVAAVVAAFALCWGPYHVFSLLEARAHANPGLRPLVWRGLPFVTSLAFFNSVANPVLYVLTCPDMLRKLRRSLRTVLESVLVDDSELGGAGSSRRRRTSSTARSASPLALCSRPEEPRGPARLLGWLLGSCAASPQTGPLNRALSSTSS
As to the kind of experiment: Antagonist activity at DP2 receptor in human isolated eosinophils assessed as inhibition of DK-PGD2-induced shape change preincubated for 5 mins followed by DK-PGD2 addition measured after 5 mins by flow cytometry.

Data set [2] has as its target T1, Prostaglandin D2 receptor 2. Put plainly: Displacement of [3H]PGD2 from human DP2 receptor expressed in CHO cell membranes after 60 mins by scintillation proximity assay.
Data set [3] is described as follows: Clearance in Wistar rat at 0.5 mg/kg, iv or 3 mg/kg, po by LC-MS/MS analysis. The class given is ADME, organism-based. The settings on record: in vivo.
Data set [4] is described as follows: Volume of distribution at steady state in Wistar rat at 0.5 mg/kg, iv or 3 mg/kg, po by LC-MS/MS analysis. The format is ADME, organism-based. Conditions: in vivo, read-out: Vdss.
The nature of data set [5]: Half life in Wistar rat at 0.5 mg/kg, iv by LC-MS/MS analysis. The class given is ADME, organism-based. Conditions: in vivo.
The nature of data set [6]: Oral bioavailability in Wistar rat at 3 mg/kg by LC-MS/MS analysis. Conditions: in vivo. The format is ADME, organism-based.
The target in data set [7] is T2, Prostaglandin D2 receptor 2 (Homo sapiens) (UniProt Q9Y5Y4).
T2 sequence (whole entry): T1 sequence (Q9Y5Y4 whole entry)
Description: Displacement of [3H]NVP-QAW039 from human DP2 receptor expressed in CHO cell membranes assessed as dissociation half life by TopCount scintillation assay

Data set [8] concerns the target T1, Prostaglandin D2 receptor 2. As to the kind of experiment: Displacement of [3H]NVP-QAW039 from human DP2 receptor expressed in CHO cell membranes by TopCount scintillation assay. A general note: Loss of bound radioactivity is the signal in a displacement assay; it reports binding, not function.

Consider `Cc1c(CC(=O)O)c2cccnc2n1Cc1ccc(S(C)(=O)=O)cc1Cl`, for which, in data set [1], the IC50 came to 1.7 nM. For the same compound, the Ki in data set [2] amounted to 4 nM.
Take `Cc1c(CC(=O)O)c2cccnc2n1Cc1ccc(C(F)(F)F)cc1C(F)(F)F`: the concentration for half-maximal inhibition (IC50) in data set [1] is 14 nM.
Regarding `CCS(=O)(=O)c1ccc(Cn2c(C)c(CC(=O)O)c3cccnc32)c(Cl)c1`, in data set [1], the concentration for half-maximal inhibition (IC50) worked out at 1.3 nM. This compound also had a clearance in data set [3] of 4.4 mL/min/kg. The compound further yielded a Ki in data set [2] of 6 nM. Besides, in data set [4], the Vd is 1.1 L/kg. The half-life in data set [5] is 7.7 h. In data set [6], this compound returned a bioavailability of 71%. The compound also gave a T1/2 in data set [7] of 3.36 min. In addition, the Kd in data set [8] was 1.91 nM.
Turning to `CCS(=O)(=O)c1ccc(Cn2c(C)c(CC(=O)O)c3cccnc32)c(C(F)(F)F)c1`, the half-inhibitory concentration (IC50) in data set [1] amounted to 0.8 nM. Further, the clearance in data set [3] came out at 2.9 mL/min/kg. The compound also displayed a Ki in data set [2] of 7 nM. Further, the Vd in data set [4] is 1.2 L/kg. The compound further showed a half-life in data set [5] of 9.2 h. In data set [6], this compound yielded a bioavailability of 97%.
In data set [2], `Cc1c(CC(=O)O)c2cccnc2n1Cc1ccc(S(=O)(=O)C(C)C)cc1` showed a Ki of 86 nM.
Regarding `Cc1c(CC(=O)O)c2c(Cl)ccnc2n1Cc1ccc(S(C)(=O)=O)cc1`, the IC50 in data set [1] was found to be 80 nM. In data set [2], this compound returned a Ki of 356 nM.
With `Cc1c(CC(=O)O)c2cc(Br)cnc2n1Cc1ccc(S(C)(=O)=O)cc1`, the Ki in data set [2] was 735 nM.
Same read-out and setting: the value for `Cc1ccc2c(CC(=O)O)c(C)n(Cc3ccc(S(C)(=O)=O)cc3)c2n1` was 72 nM.

The IC50 is the concentration that inhibits the measured activity by half. A word on the Ki: it is a dissociation constant, usually derived from enzyme kinetics or from competition with a known ligand. Usually half-life stands for how long it takes for the measured level to halve. What is called bioavailability is the share of a dose that reaches the circulation, judged against a reference dose that is usually intravenous. Usually Kd stands for a measure of binding affinity in units of concentration. The low end stands for tighter binding, the high end for weaker binding.
